Entries after “also recorded” stand apart in the source; their conditions may differ.
Tests used:
Mmp9 [1] = experiment: Mmp9 expression by qPCR in mouse peritoneal macrophages cultured on fibronectin; assay type: cell-based
Protocol: (§1) FIG. 4. TP signaling is required for MMP9 production in vitro and in vivo. A) Macrophage Mmp9 expression after culture on fibronectin for 24 hrs in media/vehicle (−), 40 nM S1P, 10 μM LPA, 10 nM U-46619 (TP agonist) or 6 μM PTXA2 (TP antagonist). Data represent normalized mean±SE. B) Arhgef1−/− mice (n=16) were exposed to aerosolized PBS (n=16), 220 μM PTXA2 (n=6) or 190 μM U-46619 (n=10) for 20 minutes and BAL harvested 1 day later and MMP activity measured.
FIG. 12. Thromboxane receptor signaling is necessary for fibronectin-induced MMP9 production by macrophages and is attenuated by Arhgef1. A, representative gelatin zymograms of conditioned media from macrophages cultured on plastic (ctl) or FN and treated with 1.56 or 6.25 μM of the thromboxane receptor antagonist PTA2. Wild type (+/+) and Arhgef1^−/− (−/−) samples from separate zymograms are shown. B, quantitation of MMP9 activity as determined by densitometric analysis of zymograms in A. The results are representative of two independent experiments. C, representative zymograms from conditioned media from macrophages cultured on plastic or fibronectin and treated with 28 μM of the thromboxane receptor antagonist L-655,240. D, quantitation of MMP9 activity as determined by densitometric analysis of zymograms in C. The results are compiled from two independent experiments with n=4 for both wild type (open bars) and Arhgef1^−/− (black bars) samples. The data represent the means±S.E. *, p<0.05 Student's two-tailed t test compared with conditioned media from cells cultured on plastic. #, p<0.05 Student's two-tailed t test comparing conditioned media from wild type cells to Arhgef1^−/− cells cultured under identical conditions. $, p<0.05 Student's two-tailed t test compared with conditioned media from cells cultured on fibronectin. E, MMP2 activity was quantitated in conditioned media as previously described for MMP9. The results are compiled from four independent experiments with n=10 for wild type (open bars) and Arhgef1^−/− (black bars) samples cultured on either plastic or fibronectin. For cells treated with 20 mM aspirin, n=6 for wild type (open bars) and Arhgef1^−/− (black bars) samples. For cells treated with 28 μM L-655,240, n=4 for wild type (open bars) and Arhgef1^−/− (black bars) samples. The data represent the means±S.E. F, MMP9 activity was quantitated as previously described and normalized to a percentage of fibronectin response for each genotype. The cells were either untreated or treated with 0.5% Me2SO or 28 μM L-655,240. The results are compiled from two independent experiments with n=3 for all conditions and genotypes. The data represent the means±S.E. *, p<0.05 Student's two-tailed t test compared with conditioned media from cells cultured on fibronectin. G, relative Mmp9 expression was measured by qPCR in macrophages cultured on fibronectin in the presence of the thromboxane receptor agonist (U-46619, 10 nM), S1P (40 nM), or LPA (10 μM). […] Wild type (open bars, n=12, 6, 3, and 3 for fibronectin, +U-46619, +S1P, and +LPA, respectively) and Arhgef1^−/− (black bars, n=14, 6, 3, and 2, respectively) from at least two independent experiments. The data represent the means±S.E. *, p<0.05 Student's two-tailed t test compared with conditioned media from cells cultured on fibronectin, #, p<0.05 Student's two-tailed t test comparing conditioned media from wild type cells to Arhgef1^−/− cells cultured under identical conditions. […]

Mmp9 [2] = experiment: MMP9 activity in BAL of Arhgef1−/− mice after aerosol exposure; assay type: in vivo, mouse; details: inhalation of aerosol 20 min (220 μM PTXA2, 190 μM U-46619), BAL 24 hours later
Protocol: as §1

MMP9 [3] = experiment: MMP9 activity by gelatin zymography, peripheral blood monocytes from COPD patients on fibronectin; assay type: cell-based, human; details: monocytes from 3 COPD patients; dose response 0.4 μM to 260 μM
Protocol: FIG. 17. Seratrodast (AA-2414) treatment on peripheral blood monocytes from 3 COPD patients. Generated dose response curve going firm 0.4 μM to 260 μM. Measured response by gelatin zymography of conditioned media. A is a representative zymogram from a single individual COPD patient. B depicts results compiled from three COPD patients. *, p<0.05 for ctl vs FN; #, p<0.05 FN vs FN+seratrodast.
For other human studies, we quantitated MMP9 by ELISA in conditioned medium (ELISA TECH, Aurora, Colo.).
Novex (Invitrogen) zymogram 10% gelatin gels were used for zymography as indicated per the manufacturer's instructions on conditioned media. Protease activity was detected as a loss of gelatin at the molecular weight of the indicated MMP and quantified by densitometric analysis using ImageJ (National Institutes of Health) software.
As another example, the thromboxane receptor antagonist seratrodast (AA-2414) was used on peripheral blood monocytes from 3 COPD patients and data collected as shown in FIG. 17.

Mmp9 [4] = experiment: MMP9 activity by gelatin zymography in conditioned media of mouse peritoneal macrophages cultured on fibronectin; assay type: cell-based; details: for maximal inhibition of fibronectin-induced MMP9 production/activity: both wild type and Arhgef1-deficient macrophages, aspirin up to 20 mM, L-161,982, PTA2 1.56 or 6.25 μM, L-655,240 28 μM
Protocol: FIG. 5. TP-induced MMP9 production is only partially dependent on COX activity. A) PEMs were cultured on fibronectin for 24 hours with 5% FCS, washed then treated with different concentration of aspirin or 1.6 μM PTXA2 at for an additional 24 hours without FCS. MMP9 activity was determined by zymography from supernatants of wild type (open) or Arhgef1−/− (filled) macrophages. Activity was normalized to activity generated from cells cultured on fibronectin without treatment. B) MMP9 activity in conditioned media from peripheral blood monocytes cultured as described in panel A. Data represents mean±SE (n=3 independent donors).
FIG. 6. The antioxidant mimetic MnTE-2PyP reduces MMP9 activity in macrophages. PEMs were cultured on fibronectin for 24 hours with 5% FCS, washed then treated with MnTE-2PyP at the indicated concentrations for an additional 24 hours without FCS. MMP9 activity was determined by zymography from supernatants of wild type (open) or Arhgef1−/− (filled) macrophages. Activity was normalized to activity generated from cells cultured on fibronectin without treatment.
FIG. 11. Cyclooxygenase activity but not EP4 receptor signaling is required for MMP9 production by murine macrophages cultured on fibronectin. A, representative MMP9 gelatin zymograms of conditioned media from peritoneal macrophages cultured on either plastic (ctl) or FN and treated with increasing concentrations of aspirin (1.25, 5.0, and 20 mM, respectively). Wild type (+/+) and Arhgef1^−/− (−/−) samples from separate zymograms are shown. Molecular weight standards and respective enzymatic activities of MMP9 and MMP2 are shown. B, quantitation of MMP9 activity as determined by densitometric analysis of zymograms in A. MMP 9 activity is shown in arbitrary units and represents n=6 for both wild type (open bars) and Arhgef1^−/− (black bars) samples. The results are compiled from two independent experiments. The data represent the means±S.E. *, p<0.05 Student's two-tailed t test compared with conditioned media from cells cultured on plastic. #, p<0.05 Student's two-tailed test comparing conditioned media from wild type cells to Arhgef1^−/− cells cultured under identical conditions. $, p<0.05 Student's two-tailed t test compared with conditioned media from cells cultured on fibronectin. C, quantitation of MMP9 activity in conditioned media from macrophages cultured on fibronectin in the presence of the EP4 antagonist L161,982 (10 μM). MMP9 activity was normalized to fibronectin response for each genotype. The results are compiled from two independent experiments with wild type (open bars, n=5) and Arhgef1^−/− (black bars, n=5) samples. The data represent the means±S.E. *, p<0.05 Student's two-tailed t test compared with conditioned media from cells cultured on plastic. #, p<0.05 Student's two-tailed t test compared with conditioned media from cells cultured on fibronectin.
FIG. 12. Thromboxane receptor signaling is necessary for fibronectin-induced MMP9 production by macrophages and is attenuated by Arhgef1. A, representative gelatin zymograms of conditioned media from macrophages cultured on plastic (ctl) or FN and treated with 1.56 or 6.25 μM of the thromboxane receptor antagonist PTA2. Wild type (+/+) and Arhgef1^−/− (−/−) samples from separate zymograms are shown. B, quantitation of MMP9 activity as determined by densitometric analysis of zymograms in A. The results are representative of two independent experiments. C, representative zymograms from conditioned media from macrophages cultured on plastic or fibronectin and treated with 28 μM of the thromboxane receptor antagonist L-655,240. D, quantitation of MMP9 activity as determined by densitometric analysis of zymograms in C. The results are compiled from two independent experiments with n=4 for both wild type (open bars) and Arhgef1^−/− (black bars) samples. […]

MMP2 = MMP2 activity by gelatin zymography in conditioned media of mouse peritoneal macrophages cultured on fibronectin; assay type: cell-based; details: wild type and Arhgef1−/− macrophages; 20 mM aspirin or 28 μM L-655,240
Protocol: FIG. 12. Thromboxane receptor signaling is necessary for fibronectin-induced MMP9 production by macrophages and is attenuated by Arhgef1. A, representative gelatin zymograms of conditioned media from macrophages cultured on plastic (ctl) or FN and treated with 1.56 or 6.25 μM of the thromboxane receptor antagonist PTA2. Wild type (+/+) and Arhgef1^−/− (−/−) samples from separate zymograms are shown. B, quantitation of MMP9 activity as determined by densitometric analysis of zymograms in A. The results are representative of two independent experiments. C, representative zymograms from conditioned media from macrophages cultured on plastic or fibronectin and treated with 28 μM of the thromboxane receptor antagonist L-655,240. D, quantitation of MMP9 activity as determined by densitometric analysis of zymograms in C. The results are compiled from two independent experiments with n=4 for both wild type (open bars) and Arhgef1^−/− (black bars) samples. […] E, MMP2 activity was quantitated in conditioned media as previously described for MMP9. […] The data represent the means±S.E. F, MMP9 activity was quantitated as previously described and normalized to a percentage of fibronectin response for each genotype. […] G, relative Mmp9 expression was measured by qPCR in macrophages cultured on fibronectin in the presence of the thromboxane receptor agonist (U-46619, 10 nM), S1P (40 nM), or LPA (10 μM). […]

[5] = wild type and Arhgef1-deficient macrophages on fibronectin, 40 nM S1P, 10 μM LPA, 6 μM PTXA2, 24 h

lysophosphatidic acid [LPA]
Mmp9 expression (Mmp9 [1]; [5]): slight decrease in Mmp9 expression; also recorded: modestly depress Mmp9 expression

CCCCC[C@H](O)/C=C/[C@@H]1[C@@H](C/C=C\CCCC(=O)O)[C@H]2CO[C@@H]1C2 [U-46619]
Mmp9 expression (Mmp9 [1]; Arhgef1-deficient macrophages on fibronectin, 10 nM U-46619): expressed significantly more Mmp9; also recorded: considerably increased Mmp9 expression | Mmp9 expression (Mmp9 [1]; wild type macrophages on fibronectin, 10 nM U-46619): did not affect wild type cells | MMP9 activity in BAL (Mmp9 [2]): dramatically increased MMP9 activity

CC1=C(C)C(=O)C(C(CCCCCC(=O)O)c2ccccc2)=C(C)C1=O (stereo not shown) [seratrodast, 7-phenyl-7-(2,4,5-trimethyl-3,6-dioxocyclohexa-1,4-dien-1-yl)heptanoic acid]
MMP9 activity versus dose (MMP9 [3]): inverse relationship between MMP9 activity and seratrodast dose

Cc1c(CC(C)(C)C(=O)O)n(Cc2ccc(Cl)cc2)c2ccc(F)cc12 [L-655,240, 1-[(4-Chlorophenyl)methyl]-5-fluoro-α,α,3-trimethyl-1H-indole-2-propanoic acid]
maximal inhibition of fibronectin-induced MMP9 production/activity (Mmp9 [4]): −90% | fibronectin-mediated MMP9 activity (effect in words) (Mmp9 [4]; mouse macrophages, wild type and Arhgef1−/−, 1.6 μM PTXA2, 28 μM L-655,240): significantly reduced MMP9 activity | MMP2 activity (MMP2): not affected

CCCCc1nn(-c2ccccc2C(F)(F)F)c(=O)n1Cc1ccc(-c2ccccc2S(=O)(=O)NC(=O)c2sccc2C)cc1 [L-161,982]
maximal inhibition of fibronectin-induced MMP9 production/activity (Mmp9 [4]): −40%

CCCCCCCCCCCCC/C=C/[C@@H](O)[C@@H](N)COP(=O)(O)O [S1P, sphingosine-1-phosphate]
Mmp9 expression (Mmp9 [1]; [5]): slight decrease in Mmp9 expression; also recorded: modestly depress Mmp9 expression

Source: patent publication US9820951B2, “Pulmonary disease treatment and diagnosis based on Arhgef1” (NATIONAL JEWISH HEALTH, A NON-PROFIT ORGANIZATION, priority 2011, dated 2017)
